Reference: paper PMC12040169 (PLOS Biology, 2025)

Assay: in vitro
Conditions: human, hela cells, % viability

SMILES	viability at 28.5 h, 10 µM
Cc1ccc(OCCC(=O)NCC(c2cccs2)N2CCOCC2)cc1 (centres unmarked) [CBK305976]	90.9%
Clc1ccc(-c2cc(N3CCN(c4ccccn4)CC3)ncn2)cc1 [CBK091085]	112%
O=C(NC1CCN(C(=O)Cn2ccc3ccncc32)CC1)C1CC1 [CBK284731]	98.9%
CCCC(=O)Nc1ccc2c(c1)nc1n2CCN(Cc2ccccc2)C1 [CBK267129]	105%
CN1CCN(S(=O)(=O)c2ccc3c(c2)oc(=O)c2cc(S(=O)(=O)N4CCN(C)CC4)ccc23)CC1 [CBK267206]	85%
OC(CN1CCC(O)(c2ccc(F)cc2)CC1)c1ccc(Cl)cc1 (centres unmarked) [CBK283311]	89.6%
COC(=O)c1cn([C@H]2CO[C@H]3[C@@H]2OC[C@H]3O)nn1 [CBK289491]	87.5%
COc1cncc(-c2cnc(N)c(N[C@@H](CO)C(C)C)n2)c1 [CBK063734]	106%
Cc1ccc(CC2CCCN(C(=O)NCc3cnn(C)c3)C2)cc1 (centres unmarked) [CBK303990]	91.8%
COc1ccc(C(=O)N2CCC3(CC2)NC(=O)c2cc(C)ccc2O3)cc1C [CBK166277]	89%
Clc1ccc(-c2ccc(/C=N/c3ccc4oc(-c5ccccc5)nc4c3)o2)cc1 [CBK261969]	102%
Cc1ccccc1-n1c(C)cc(C(=O)CSc2nncn2C)c1C [CBK298330]	91.9%
CC(C)(C)S(=O)(=O)CC(N)=S [CBK021304]	91.1%
CC(=O)Nc1nc(OCC(F)(F)F)cnc1-c1ccc2c(c1)OCO2 [CBK145427]	91.8%
CC(=O)c1ccc(NC(=O)N[C@H]2CO[C@H]3[C@@H]2OC[C@H]3OCC(N)=O)cc1 [CBK289460]	117%
C=CCn1c(Cc2csc(NC(=O)c3ccc(Cl)cc3)n2)n[nH]c1=S [CBK295318]	86.7%
OC(Cn1ccnc1)C1CCCCC1 (centres unmarked) [CBK010092]	78.3%
O=C(O)CC(Cc1ccccc1)(C(=O)O)c1ccccc1 (centres unmarked) [CBK287133]	77.8%
CC(C)[C@@H](CO)Nc1nc(-c2cccc3ccccc23)cnc1N [CBK063725]	95.2%
Cc1ccc(S(=O)(=O)N2CCN(C)CC2)cc1NC(=O)c1ccc(Br)o1 [CBK034260C]	99.3%
O=C(CN1CCC[C@@H]1CN1CCCC1)Nc1ncccn1 [CBK149107]	103%
O=C(CCc1nc(=O)c2c3c(sc2[nH]1)CCC3)N1CCCCCC1 [CBK306388]	90.4%

SMILES	viability at 28.5 h, 10 µM
FC(F)(F)c1cc(-c2cc(N3CCN(c4ccccn4)CC3)ncn2)cc(C(F)(F)F)c1 [CBK091082]	94.5%
CSCC[C@H](NC(=O)OC(C)(C)C)C(=O)NCc1csc(-c2ccccc2)n1 [CBK092345]	88%
COCCNC(=O)N[C@H](Cc1ccccc1)C(=O)O [CBK286667]	85.5%
Clc1ccc(CN2CCN(c3nccnc3OC3CCCCC3)CC2)cc1 [CBK082826T]	101%
COCCNc1cc(-c2cccc3oc4ccccc4c23)ncn1 [CBK090794]	101%
COc1cc(N2CCCNCC2)ncn1 [CBK085485C]	91.6%
c1cnn(CCCNc2nc3nonc3nc2N2CCCCCC2)c1 [CBK307318]	110%
Cc1cc2cc3n(c2nn1)N=C(Cl)CC3 [CBK019458]	91.4%
Nc1c(C(=O)NCC2CCCO2)c2nc3ccccc3nc2n1C1CCCC1 (centres unmarked) [CBK269217]	112%
COCC(=O)NC[C@H]1C[C@@H]2CCN1C[C@@H]2c1cc(-c2ccccc2)nc(C)n1 [CBK289123]	89.3%
CC(=O)OCC(=O)N1CCC(N(C)Cc2ccc(-c3ccc(S(C)(=O)=O)cc3)nc2)CC1 [CBK165268]	116%
O/N=C1\CC(c2ccccc2)Oc2ccc(Cl)cc21 (centres unmarked) [CBK288370]	91.1%
CCNC(=O)c1cc2c(=O)n3ccccc3nc2n1C [CBK287556]	104%
CCOC(=O)C1(C2CCCCC2)CCN(C(=O)c2ccc(S(N)(=O)=O)cc2)CC1 [CBK137105]	93.2%
COc1ccc(CCC(C)N2CCN(c3ccc(F)cc3)CC2)cc1 (centres unmarked) [CBK261922]	103%
Fc1ccc(Nc2cncc(-c3cccs3)n2)cc1Cl [CBK065813]	94.3%
Cc1sc2nc(C)n(C3CCN(C(=O)C(C)C)CC3)c(=O)c2c1C [CBK282414]	88.7%
O=C(O)C1CCN(C(=O)c2ccc3nsnc3c2)CC1 [CBK057344]	99.8%
O=C(NCc1ccco1)C1(c2ccccc2)CCCC1 [CBK149539]	96%
OCCN1CCN(C2CCN(Cc3ccccc3Cl)CC2)CC1 [CBK264710]	90.1%
CCCn1cnnc1C(C)NC(=O)Nc1ccnn1CC1CCCCC1 (centres unmarked) [CBK306800]	105%
Cc1cccc(-c2ncc(NC(=O)CCOc3ccccc3)nc2-c2ccc(N)cc2)c1 [CBK036655]	113%

SMILES	viability at 28.5 h, 10 µM
CCN1CCC(Oc2nccnc2OCc2cc(C)on2)CC1 [CBK082962T]	94.7%
Cc1nn(-c2ccccc2)c2sc(C(=O)N3CCN(C(=O)c4ccccc4)CC3)cc12 [CBK297554]	96.1%
CCOc1ccc(S(=O)(=O)N2CCN(Cc3cccc(F)c3C)CC2)c2cccnc12 [CBK062794]	78.3%
O=S(=O)(Oc1ccc2ccccc2c1)c1ccc2c(c1)Cc1cc(S(=O)(=O)Oc3ccc4ccccc4c3)ccc1-2 [CBK262385]	105%
O=C(CSc1nnc(-c2ccncc2)o1)Nc1ccccc1 [CBK287586]	91.3%
Cc1cccn2c(CN3CCCOCC3)c(C(=O)N3CCOCC3)nc12 [CBK307144]	111%
CC(=O)N1CCc2sccc2C1c1ccc(NC(=O)c2cccc(F)c2)cc1 (centres unmarked) [CBK286466]	83.8%
CC(C)(C)OC(=O)NCC(N)=S [CBK007979]	100%
CCc1ccc2c(c1)C(CCNC(=O)c1cscc1C(F)(F)F)C(=O)N2 (centres unmarked) [CBK304728]	82.5%
Cc1[nH]c2ccccc2c1C(=O)C(=O)Nc1sc(C)c(C)c1C#N [CBK270038]	85.9%
Cn1ncc2c(SCc3cc4c(cc3Br)OCCO4)ncnc21 [CBK297732]	104%
CCc1c(C)nc2ccccc2c1SCCOC(=O)Nc1cccc([N+](=O)[O-])c1 [CBK155545T]	106%
CCOC(=O)C(N)CSC1CC(=O)N(c2ccc(Br)cc2)C1=O (centres unmarked) [CBK017250C]	102%
CC(C)c1ccc(-n2ncc3c(=O)[nH]cnc32)cc1 [CBK288096]	70.7%
Cc1csc(C(Cc2cccs2)NC(=O)Cc2c(C)[nH]c(=O)[nH]c2=O)n1 (centres unmarked) [CBK286345]	89.7%
Nc1ncc(-c2cc(C(F)(F)F)cc(C(F)(F)F)c2)nc1NC1CCC(O)CC1 (centres unmarked) [CBK063808]	92%
O=c1nc(NS(=O)(=O)c2ccccc2Br)c(F)c[nH]1 [CBK067573]	76.6%
Cc1cc(C)c2[nH]c(CC(=O)N(C)CCN(C)C)nc2c1 [CBK282727]	74.3%
CC(C)NCC(O)c1c2c(cc3c1CCC3)CCC2 (centres unmarked) [CBK012972F]	108%
Clc1cc(Nc2cccc(OCc3ccccc3)c2)n2nccc2n1 [CBK037109]	92.2%
CC1(C)CC(=O)c2sc(NC(=O)C3COc4ccccc4O3)nc2C1 (centres unmarked) [CBK144104]	112%
Cc1c(-c2cc(C(=O)NC(C)C3CC4CCC3C4)on2)cnn1C (centres unmarked) [CBK281651]	92.8%

SMILES	viability at 28.5 h, 10 µM
CC(C)C1OC(N2CCOCC2)=NC1=O (centres unmarked) [CBK070384]	92.3%
Cc1cc(C)n(CC2CCCN2CCc2ccccn2)n1 (centres unmarked) [CBK304846]	100%
Cn1nc(NC(=O)Cc2ccsc2)c2c(N3CCOCC3)cccc21 [CBK307023]	109%
Cc1cc(C)nc(NC(=O)OCCN2CCN(C)CC2)c1 [CBK138235]	92.2%
COc1ccc(OC)c(S(=O)(=O)N2CCN(C(=O)c3cc(-c4ccncc4)nc4c(C)cc(C)cc34)CC2)c1 [CBK267778]	103%
CC(C)(CN)CN(Cc1ccccc1C(F)(F)F)C(=O)NCc1ccc(F)cc1 [CBK002471C]	87.8%
Cc1noc(C)c1NC(=O)c1cnc2ccccc2n1 [CBK200220]	98.1%
O=C(c1cc(-c2cccnc2)[nH]n1)N1CCC(c2ccccc2)C1 (centres unmarked) [CBK281849]	101%
O=C(NCc1cccnc1)c1cc(Br)cnc1NCCOc1ccccc1 [CBK076265]	99.2%
CC(C)(C)C1CCC(OC(=O)CCC(=O)O)CC1 (centres unmarked) [CBK026882]	105%
c1c(C2CC2)[nH]c2nc(N3CCCC3)nc(N3CCCC3)c12 [CBK016707G]	113%
Cc1ccc([C@@]2(O)CC[C@@H]3CN(S(=O)(=O)C(C)C)C[C@@H]32)cc1 [CBK285297]	97.8%
CCN(CC)C(=O)c1ccc(NC(=O)CSc2n[nH]c(=O)n2CC2CCCO2)cc1 (centres unmarked) [CBK295186]	77.6%
O=C(N[C@@H](Cc1ccc(O)cc1)C(=O)O)OCc1ccccc1 [CBK287012]	94.8%
CCn1cc(C(=O)O)c(=O)c2cnc(N3CCNCC3)nc21 [CBK041585]	90.8%
CC(C)(O)c1cn(C2CN(C(=O)c3sccc3-c3ccccc3)C2)nn1 [CBK305442]	87.6%
O=C(CCC1CCCO1)NC(Cc1ccsc1)c1cccnc1 (centres unmarked) [CBK285159]	87.6%
O=C(Nc1cccnc1)c1ccc(F)cc1Cl [CBK288246]	89.9%
C=CCN1C(=O)C2(CC(=O)N(Cc3ccc(OC)c(OC)c3)C2=O)c2ccccc21 (centres unmarked) [CBK075148]	114%
Cc1ccn(CCNC(=O)c2cccc(N3CCCC3=O)c2)n1 [CBK282642]	105%
O=C(Nc1cccc(-c2ccc3nncn3n2)c1)c1ccc(F)cc1 [CBK287682]	87.1%
COc1ccc2[nH]cc(CCNC(=O)CCC(=O)O)c2c1 [CBK116605]	96.5%

Same assay, conditions: human, hela cells, % viability, bulk resorufin, single well

SMILES	viability at 28.5 h, 10 µM
CCOC(=O)N1CCC2(CC1)OCc1ccc(Oc3ccncc3)cc1O2 [CBK174776]	102%
